Values quoted from earlier work as cited in EP0604852A1, “2,4-Substituted 5-(N-substituted-sulfamoyl) benzoylguanidines, as antiarrhythmic agents, inhibitors of the proliferation of cells and inhibitors of sodium-hydrogen exchange” (HOECHST AKTIENGESELLSCHAFT, priority 1992, dated 1994).

Test system: Rattenherzen
Conditions: isolated rat hearts; Eur. Heart J. 9 (Suppl.): 167 (1988)

SMILES | künstlich ausgelöstes Kammerflimmern
CCN(c1nc(N)c(C(=O)NC(=N)N)nc1Cl)C(C)C [Ethylisopropylamilorid] | Noch potenter als Amilorid
N=C(N)NC(=O)c1nc(Cl)c(N)nc1N [Amilorid] | völlig unterdrückt
